Values of other authors, collected in patent US20140011766A1, “ANTIMICROBIAL COMPOSITIONS AND METHODS” (priority 2012, published 2014).

System: pathogens
Details: except for spores (specifically C. difficile spores)

Q: Which killing of pathogens does the source give for `CCO` [Ethanol] here?
A: 99.99%
